Series [1] deals with HEL92.1.7, an erythroleukemia cell line. In words: In vitro potency (WST-8 cell viability assay), HEL92.1.7. The following applies: Homo sapiens. In kind it is cell-based. How it is done:
(§1) General Procedure Used: Samples of unconjugated free drug compounds or drug conjugates were added to 96-well flat bottomed tissue culture plates and titrated using serial dilutions to cover the desired molar range. Antigen positive (Ag^+) or Antigen negative (Ag^−) cells were added to the wells in specific cell densities in such a way that there were triplicate samples for each drug concentration for each corresponding cell line. The plates were then incubated at 37° C. in an atmosphere of 5% CO2 for 4-5 days depending on the cell line. COLO 205 (1,000 cells/well), Namalwa (3,000 cells/well), HEL 92.1.7 (3,000 cells/well)—4 days; RH30 (1,000 cells/well), HL60/QC (5,000 cells/well), Ramos (10,000 cells/well), KB (2,000 cells/well), BJAB (2,000 cells/well), NB4 (3,000 cells/well)—5 days, RPMI 8226 (8,000 cells/well)—6 days.
(§2) At the end of the incubation period cytotoxic potencies were then assessed using a WST-8 based cell viability assay and surviving cells were measured by developing with WST-8 (2-7 hours). The absorbance in each well was measured and the surviving fraction of cells at each concentration was plotted to reveal the cytotoxicity and/or antigen specificity (of the conjugates).
(§3) Using the general procedure described above, the cytotoxicity of the unconjugated free drug compounds was measured against seven cell lines: KB, a HeLa cell contaminant, HL60/QC, an acute myeloid leukemia cell line, Namalwa, a Burkitt lymphoma cell line, NB4, an acute promyelocytic leukemia cell line, HEL92.1.7, an erythroleukemia cell line, RPMI8226, a multiple myeloma cell line and BJAB, a B-cell leukemia cell line. […] The potency and specificity of the antibody-drug conjugates were measured against antigen-expressing cells, with and without the additions of an excess amount of blocking unconjugated antibody to show specificity of the killing effect. The MY9-6-drug conjugate was extremely potent towards three different antigen-expressing cells: HL60/ATCC, HL60/QC and NB-4, despite the very low antigen expression in NB4 cells. […] Similarly, the huFOLR1-drug conjugate was effective in killing antigen-expressing KB cells in a specific manner. Results are illustrated in FIGS. 25 and 26.

For series [2], the system named is HL60/QC cells. Kind of series: In vitro potency (WST-8 cell viability assay), HL60/QC. Format: cell-based, human. As for the experimental part:
as §1, §2, §3
To compare in vitro potency measurements for the subject conjugates prepared with and without imine reactive reagent, such as sodium bisulfite, huMy9-6-BMPS-1f, huMy9-6-sulfo-SPDB-1f, and huMy9-6-Drug 2 were prepared with and without sodium bisulfite using the in situ sulfonation method (wherein the respective compounds of the invention was first mixed with sodium bisulfite and a bifunctional crosslinker bearing a reactive group, then the reaction mixture, without further purification, was reacted with the huMy9-6 monoclonal antibody as the cell-binding agent). IC50s for the conjugates on HL60-QC cells are shown below.

The test system of series [3] is NB4, an acute promyelocytic leukemia cell line. Kind of series: In vitro potency (WST-8 cell viability assay), NB4. To be noted: read-out: IC50 NB4. In kind it is cell-based. As for the experimental part:
as §1, §2, §3
(Tetrazolium dyes change colour on reduction, which living cells bring about.)

For series [4], the system named is BJAB, a B-cell leukemia cell line. In words: In vitro potency (WST-8 cell viability assay), BJAB. Format: cell-based. To be noted: Homo sapiens, read-out: IC50 BJAB. How it is done: as §1, §2, §3
The test system of series [5] is KB cells. In words: In vitro potency (WST-8 cell viability assay), KB. Format: cell-based. To be noted: Homo sapiens, read-out: IC50 KB. How it is done: as §1, §2, §3
For series [6], the system named is RPMI8226, a multiple myeloma cell line. In words: In vitro potency (WST-8 cell viability assay), RPMI8226. Format: cell-based. The following applies: Homo sapiens. How it is done: as §1, §2, §3
Series [7] deals with Namalwa, a Burkitt lymphoma cell line. Kind of series: In vitro potency (WST-8 cell viability assay), Namalwa. Format: cell-based. The following applies: read-out: IC50 Namalwa. As for the experimental part: as §1, §2, §3
For series [8] the following is noted: Phase I clinical evaluation; cited from earlier work.
For series [9], the system named is HL60/QC tumors. Kind of series: In vivo efficacy in HL60/QC tumor bearing nude mice. The following applies: HL60-QC tumor xenografts; for T/C %: ~20 μg/kg drug dose. How it is done:
In this study, the anti-tumor activity of huMY9-6-SPDB-1f was investigated in female nude mice bearing HL60/QC tumors, a human acute myeloid leukemia model. HL60/QC tumor cells, 2×10^6 cells/mouse were subcutaneously inoculated at a volume of 0.1 mL/mouse in the area over the right shoulder of female athymic nude mice, 5 weeks of age. Eight days after tumor cell inoculation mice were randomized into groups (n=6 per group) by tumor volume. Treatment was initiated the day of randomization, and groups included a control group dosed with PBS (200 μL/injection), or a single treatment at various doses (5 to 100 μg/kg) of huMY9-6-SPDB-1f (50 μg/kg 1f dose corresponded to 2.5 mg/kg antibody dose). […] The minimum effective dose was estimated to be 20 μg/kg, which is about 35-fold lower that the maximum tolerated dose.
To compare in vivo efficacy of the subject conjugates prepared with or without an imine reactive group, huMy9-6-Drug 2 were formulated with or without 50 μM sodium bisulfite, and the conjugates were used to treat mice bearing HL60-QC tumor xenografts.

Setting [10] is: HEL 92.1.7, free drug, read-out: IC50 HEL92.1.7.
Setting [11] is: Homo sapiens, HL-60, free drug, read-out: IC50 HL60/QC.
Setting [12] is: RPMI-8226, free drug, read-out: IC50 RPMI8226.

Like-named read-outs stand apart in the source and are kept apart here. Where only a bound is given, the exact number is not on record here.

For the molecule `COc1cc2c(cc1OCc1cc(COc3cc4c(cc3OC)C(=O)N3c5ccccc5C[C@H]3C=N4)cc(CSCC(C)(C)SSC)c1)N=C[C@@H]1Cc3ccccc3N1C2=O` [Compound 27d], the IC50 in series [1] (setting [10]) amounted to 0.14 nM; in [2] (setting [11]), 50 pM; in series [3] (free drug), 0.039 nM; in series [4] (free drug), 0.04 nM; in series [5] (free drug), 0.23 nM; in [6] (setting [12]), 0.07 nM.
For the molecule `COc1cc2c(cc1OCc1cccc(COc3cc4c(cc3OC)C(=O)N3c5ccccc5C[C@H]3CN4)c1)N=C[C@@H]1Cc3ccccc3N1C2=O` [Compound 29b], the IC50 worked out at 0.007 nM in [1] (setting [10]); 3 pM in series [7] (free drug); 6 pM in [2] (setting [11]); 0.007 nM in series [3] (free drug); 0.003 nM in series [4] (free drug); 0.007 nM in [5] (free drug). Besides, in series [6] (setting [12]), the IC50 came out at 0.005 nM.
For `COc1cc2c(cc1OCc1cccc(COc3cc4c(cc3OC)C(=O)N3c5ccccc5C[C@H]3CN4)c1)NC[C@@H]1Cc3ccccc3N1C2=O` [Compound 29c], the IC50 in series [1] (HEL 92.1.7, read-out: IC50 HEL92.1.7) stood at 0.027 nM; in series [7], 13 pM; in [2] (Homo sapiens, HL-60, read-out: IC50 HL60/QC) it was 30 pM; in series [3] it was 0.023 nM; in series [4] it was 0.015 nM; in series [5] it was 0.057 nM. In addition, in [6] (RPMI-8226, read-out: IC50 RPMI8226), the IC50 was determined as 0.16 nM.
For the molecule `C=C1C[C@H]2C=Nc3cc(OCCCOc4cc5c(cc4OC)C(=O)N4CC(=C)C[C@H]4C=N5)c(OC)cc3C(=O)N2C1` [SJG-136], in series [8], the maximum tolerated dose is given as 45 μg/m^2.
With `COCCOCCOCCN(CC(C)(C)S(C)=S)c1cc(COc2cc3c(cc2OC)C(=O)N2c4ccccc4C[C@H]2C=N3)cc(COc2cc3c(cc2OC)C(=O)N2c4ccccc4C[C@H]2CN3)c1` (stereo partly drawn) [Compound 1d], the IC50 in [7] (free drug) stood at 69 pM; in [2] (setting [11]) it was 32 pM; in series [5] (free drug) it was 0.18 nM.
For the molecule `COc1cc2c(cc1OCc1cc(COc3cc4c(cc3OC)C(=O)N3c5ccccc5C[C@H]3CN4)cc(CSCC(C)(C)SSC)c1)NC[C@@H]1Cc3ccccc3N1C2=O` [Compound 27f], the IC50 in [1] (setting [10]) is 1.8 nM; in series [2] (setting [11]), 1700 pM; in [3] (free drug) it was 1.1 nM; in series [4] (free drug), 1 nM; in series [5] (free drug), 4.4 nM; in series [6] (setting [12]), more than 3 nM.
In the case of `COc1cc2c(cc1OCc1cccc(COc3cc4c(cc3OC)C(=O)N3c5ccccc5C[C@H]3C=N4)c1)N=C[C@@H]1Cc3ccccc3N1C2=O` [Compound 29a], the IC50 was 0.0031 nM in series [1] (setting [10]); 2 pM in [7] (free drug); 1 pM in series [2] (setting [11]); 0.0023 nM in [3] (free drug); 0.001 nM in [4] (free drug); 0.004 nM in series [5] (free drug). Besides, in series [6] (setting [12]), the IC50 was 0.011 nM.
As for `COc1cc2c(cc1OCc1cc(COc3cc4c(cc3OC)C(=O)N3c5ccccc5C[C@H]3CN4)cc(CSCC(C)(C)SSC)c1)N=C[C@@H]1Cc3ccccc3N1C2=O` [Compound 27e], the IC50 came out at 0.2 nM in series [1] (setting [10]); 90 pM in series [2] (setting [11]); 0.13 nM in series [3] (free drug); 0.12 nM in series [4] (free drug); 0.39 nM in series [5] (free drug); 0.24 nM in [6] (setting [12]).

B1: huMy9-6-Drug 2 (conjugate, chains of the INN, looked up)
VH: QVQLVESGGGVVQPGRSLRLSCAASGFTFSSFGMHWVRQAPGKGLEWVAYISSGSFTIYYADSVKGRFTISRDNSKNTLYLQMNSLRAEDTAVYYCARMRKGYAMDYWGQGTLVTVSS
VL: DVVMTQSPLSLPVTLGQPASISCRSSQIIIHSDGNTYLEWFQQRPGQSPRRLIYKVSNRFSGVPDRFSGSGSGTDFTLKISRVEAEDVGVYYCFQGSHVPHTFGQGTKVEIK
modifications: Drug 2 payload
Turning to B1, the IC50 in series [2] (HL60-QC cells, antigen blocking with 1 μM unconjugated huMy9-6, conjugate prepared with NaHSO3 (+), read-out: IC50 (pM) huMy9-6 blocking) was more than 3000 pM; in series [2] (HL60-QC cells, antigen blocking with 1 μM unconjugated huMy9-6, conjugate prepared without NaHSO3 (−), read-out: IC50 (pM) huMy9-6 blocking) it was more than 3000 pM; in series [2] (HL60-QC cells, conjugate prepared with NaHSO3 treatment (+), read-out: IC50) it was 6.8 pM; in series [2] (HL60-QC cells, conjugate prepared without NaHSO3 treatment (−), read-out: IC50) it was 16 pM. For the same molecule, the “Minimum effective dose (μg/kg drug)” value was 19 μg/kg drug in series [9] (conjugate formulated with 50 μM sodium bisulfite (+)) and 18 μg/kg drug in [9] (conjugate formulated without 50 μM sodium bisulfite (−)). In addition, the figures for the T/C % in series [9] (formulated with 50 μM sodium bisulfite (+)) and in series [9] (formulated without sodium bisulfite (−)) were 16% and 20%, respectively.

Values taken from patent publication USRE49918E1, “Cytotoxic benzodiazepine derivatives” (priority 2011, dated 2024).
